Source: ChEMBL document CHEMBL1201862, “PubChem BioAssay data set” (2004)
Where “and” joins values, the source holds several entries; their conditions need not be identical. Identical values can stand only once. Calls of active or inactive are those of the source.

Experiments:
[1] = target: Cytochrome P450 3A4 (Homo sapiens, UniProt P08684); settings: Potency;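 note: confirmatory qHTS run detecting inhibitors and substrates of CYP3A4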
[2] = system: Streptococcus; assay: GAS UMAA2166 growth inhibition – luminescence, BacTiterGlo, counter-screen for streptokinase expression inhibitor project, dose response (AID 1915); type: functional, organism-based;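 note: potency for reduction of bacterial viability or growth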
[3] = target: T1, Probable nicotinate-nucleotide adenylyltransferase (Staphylococcus aureus (strain N315), UniProt P65502); type: functional, Staphylococcus aureus subsp. aureus N315;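 for IC50 Mean: confirmatory dose-response retesting of NadD inhibitor hits first found in an ultra-high-throughput screen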
T1 sequence (P65502 whole entry): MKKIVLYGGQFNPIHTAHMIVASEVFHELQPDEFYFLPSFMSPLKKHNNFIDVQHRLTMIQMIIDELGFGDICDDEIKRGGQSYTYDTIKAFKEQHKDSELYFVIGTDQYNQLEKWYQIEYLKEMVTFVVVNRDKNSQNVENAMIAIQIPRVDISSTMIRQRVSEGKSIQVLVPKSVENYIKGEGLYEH

[4] = target: T2, Streptokinase A (Streptococcus pyogenes serotype M1, UniProt P10520); assay: viability-normalized secreted streptokinase activity reduction – plasminogen activation absorbance, OD405, dose response (AID 1914); type: functional, Streptococcus pyogenes M1 GAS;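 note: secreted streptokinase activity via plasminogen activation per viability signal from cell pellet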
T2 sequence (P10520 whole entry): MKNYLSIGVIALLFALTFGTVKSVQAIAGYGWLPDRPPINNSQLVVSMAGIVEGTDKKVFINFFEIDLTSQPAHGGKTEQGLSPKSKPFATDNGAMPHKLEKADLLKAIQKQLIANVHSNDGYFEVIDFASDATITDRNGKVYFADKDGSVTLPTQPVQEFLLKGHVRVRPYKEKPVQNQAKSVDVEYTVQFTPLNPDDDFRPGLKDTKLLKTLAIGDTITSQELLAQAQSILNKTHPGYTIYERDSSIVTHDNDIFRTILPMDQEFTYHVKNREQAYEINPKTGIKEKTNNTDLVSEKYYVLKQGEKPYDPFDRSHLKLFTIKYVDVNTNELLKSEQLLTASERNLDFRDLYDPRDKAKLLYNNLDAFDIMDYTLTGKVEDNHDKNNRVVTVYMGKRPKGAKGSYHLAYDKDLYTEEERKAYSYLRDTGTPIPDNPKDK

[5] = target: T1, Probable nicotinate-nucleotide adenylyltransferase; type: functional, Staphylococcus aureus subsp. aureus N315; settings: read-out: IC50_Mean
[6] = system: Streptococcus sp. 'group A'; assay: Streptococcus pyogenes SK(-)GAS viability under kanamycin – luminescence, BacTiterGlo, confirmation, counter-screen for streptokinase expression inhibitor project, dose response (AID 1900); type: functional, organism-based
[7] = cells; type: functional, cell-based
[8] = cells; type: functional, cell-based; remark: listed apart in the source
[9] = target: T3, Bcl-2-like protein 10 (Homo sapiens, UniProt Q9HD36); assay: Bcl-B/TR3 peptide binding disruption – biochemical, fluorescence polarization, FITC-TR3 peptide, selectivity assay for Bfl-1 inhibitor project, primary screen (AID 748);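 note: fluorescence polarization from a fluorescein-labelled TR3 peptide binding purified Bcl-B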
T3 sequence (Q9HD36 whole entry): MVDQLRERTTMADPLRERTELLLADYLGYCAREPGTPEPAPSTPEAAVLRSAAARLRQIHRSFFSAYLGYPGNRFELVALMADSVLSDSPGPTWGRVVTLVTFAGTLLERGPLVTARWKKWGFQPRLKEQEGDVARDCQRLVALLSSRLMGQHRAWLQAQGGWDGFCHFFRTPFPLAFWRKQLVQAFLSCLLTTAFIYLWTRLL

[10] = HepG2 cell cytotoxicity, dose response, cytotoxicity control for non-replicating M. tuberculosis project (AID 489018); type: functional; settings: Mycobacterium tuberculosis
[11] = cells; type: functional
[12] = Vero E6 cell cytotoxicity, dose response, cytotoxicity control for non-replicating M. tuberculosis project, secondary assay (AID 492998); type: functional, VeroE6; settings: Vero C1008
[13] = THP-1 cell cytotoxicity, dose response, cytotoxicity control for non-replicating M. tuberculosis project (AID 489025); type: functional
[14] = target: SUMO-activating enzyme (Homo sapiens, UniProt Q9UBT2); assay: blockers of UBC9-mediated SUMO conjugation – biochemical, AlphaScreen, SUMOylation inhibitor project, confirmation (AID 2018); type: functional
SUMO-activating enzyme, sequence (Q9UBE0 whole entry): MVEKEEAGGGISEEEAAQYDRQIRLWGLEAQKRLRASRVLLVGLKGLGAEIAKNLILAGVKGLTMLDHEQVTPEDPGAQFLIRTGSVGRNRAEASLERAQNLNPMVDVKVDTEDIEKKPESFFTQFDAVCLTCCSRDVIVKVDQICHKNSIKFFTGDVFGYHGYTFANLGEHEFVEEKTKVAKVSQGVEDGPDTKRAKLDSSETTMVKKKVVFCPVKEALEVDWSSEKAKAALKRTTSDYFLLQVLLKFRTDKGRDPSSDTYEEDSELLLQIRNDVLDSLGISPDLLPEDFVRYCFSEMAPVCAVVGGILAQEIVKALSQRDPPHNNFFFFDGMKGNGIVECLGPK
SUMO-activating enzyme, sequence (Q9UBT2 whole entry): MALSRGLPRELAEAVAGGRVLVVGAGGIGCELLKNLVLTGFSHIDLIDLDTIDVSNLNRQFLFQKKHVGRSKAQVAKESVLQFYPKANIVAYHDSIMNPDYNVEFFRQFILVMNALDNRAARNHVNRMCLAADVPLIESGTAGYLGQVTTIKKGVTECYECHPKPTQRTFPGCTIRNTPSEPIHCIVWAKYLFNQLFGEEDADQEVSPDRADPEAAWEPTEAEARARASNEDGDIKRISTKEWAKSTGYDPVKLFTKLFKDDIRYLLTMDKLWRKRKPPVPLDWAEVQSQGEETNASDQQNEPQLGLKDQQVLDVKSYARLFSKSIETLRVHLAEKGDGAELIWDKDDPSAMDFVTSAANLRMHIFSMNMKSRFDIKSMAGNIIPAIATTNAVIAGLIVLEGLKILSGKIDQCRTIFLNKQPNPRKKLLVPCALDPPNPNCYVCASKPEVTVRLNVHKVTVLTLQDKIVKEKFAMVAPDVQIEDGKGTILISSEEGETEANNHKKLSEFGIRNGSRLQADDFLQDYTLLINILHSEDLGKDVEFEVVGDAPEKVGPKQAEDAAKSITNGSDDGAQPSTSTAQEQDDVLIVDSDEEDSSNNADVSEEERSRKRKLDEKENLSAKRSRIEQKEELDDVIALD

[15] = Trypanosoma cruzi growth suppression in host cells – NIH3T3 host cells, beta-gal luminescence, confirmation (AID 2044); type: functional, cell-based;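 note: intracellular parasites grown in NIH/3T3 mouse fibroblasts as host cells; luminescent beta-galactosidase reporter signal from transgenic T. cruzi replicating inside host cells; inhibitors lower the luminescence signal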
[16] = target: T4, Mannose-6-phosphate isomerase (Homo sapiens, UniProt P34949); assay: MPI enzyme activity inhibition – biochemical, fluorescence intensity, coupled assay, primary screen (AID 1209)
T4 sequence (P34949 whole entry): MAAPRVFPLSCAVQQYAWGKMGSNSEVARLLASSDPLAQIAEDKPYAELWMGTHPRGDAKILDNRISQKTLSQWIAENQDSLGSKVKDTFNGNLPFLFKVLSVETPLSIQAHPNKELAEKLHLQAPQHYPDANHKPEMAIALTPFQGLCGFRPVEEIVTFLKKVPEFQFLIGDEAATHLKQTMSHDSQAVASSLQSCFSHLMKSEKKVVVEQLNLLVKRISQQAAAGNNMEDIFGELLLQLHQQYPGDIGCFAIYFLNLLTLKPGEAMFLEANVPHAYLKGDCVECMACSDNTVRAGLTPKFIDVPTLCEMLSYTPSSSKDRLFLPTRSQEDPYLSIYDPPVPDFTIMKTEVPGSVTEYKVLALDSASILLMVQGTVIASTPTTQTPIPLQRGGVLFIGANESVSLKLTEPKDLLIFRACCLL

[17] = NIH3T3 cell viability loss – ATP luminescence, mouse fibroblasts, counter-screen, dose response (AID 2010); type: functional, cell-based;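 note: cells exposed to compound for about 90 hours before reading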
[18] = target: T5, Microphthalmia-associated transcription factor (Homo sapiens, UniProt O75030); assay: reducers of TRPM1 reporter luminescence, concentration series – cell-based, SK-MEL-5, cherry-picked, set 3, MITF inhibitor project, dose response (AID 493073); type: functional;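 note: SK-MEL-5 melanoma cells with luciferase driven by the MITF target TRPM1 promoter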
T5 sequence (O75030 whole entry): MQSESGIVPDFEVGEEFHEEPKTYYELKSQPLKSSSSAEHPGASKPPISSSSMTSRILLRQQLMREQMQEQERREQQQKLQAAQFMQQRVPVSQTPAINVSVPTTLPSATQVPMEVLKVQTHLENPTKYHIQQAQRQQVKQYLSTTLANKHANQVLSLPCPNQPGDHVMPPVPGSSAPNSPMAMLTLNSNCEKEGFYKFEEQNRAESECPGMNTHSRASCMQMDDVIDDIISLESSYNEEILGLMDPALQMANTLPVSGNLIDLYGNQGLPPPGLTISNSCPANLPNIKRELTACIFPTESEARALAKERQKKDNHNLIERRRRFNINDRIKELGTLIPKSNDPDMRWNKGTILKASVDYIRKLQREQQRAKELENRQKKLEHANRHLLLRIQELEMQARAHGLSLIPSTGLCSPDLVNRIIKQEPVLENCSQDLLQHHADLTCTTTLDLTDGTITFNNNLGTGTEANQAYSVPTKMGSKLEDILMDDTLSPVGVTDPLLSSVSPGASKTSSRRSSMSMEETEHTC

[19] = target: DNA dC->dU-editing enzyme APOBEC-3G (Homo sapiens, UniProt Q9HC16); assay: Dose Response confirmation of small molecule APOBEC3G DNA Deaminase Inhibitors via a fluorescence-based single-stranded DNA deaminase assay. [Related pubchem assays (depositor defined):AID493012, AID493028]; type: functional
DNA dC->dU-editing enzyme APOBEC-3G, sequence (Q9HC16 whole entry): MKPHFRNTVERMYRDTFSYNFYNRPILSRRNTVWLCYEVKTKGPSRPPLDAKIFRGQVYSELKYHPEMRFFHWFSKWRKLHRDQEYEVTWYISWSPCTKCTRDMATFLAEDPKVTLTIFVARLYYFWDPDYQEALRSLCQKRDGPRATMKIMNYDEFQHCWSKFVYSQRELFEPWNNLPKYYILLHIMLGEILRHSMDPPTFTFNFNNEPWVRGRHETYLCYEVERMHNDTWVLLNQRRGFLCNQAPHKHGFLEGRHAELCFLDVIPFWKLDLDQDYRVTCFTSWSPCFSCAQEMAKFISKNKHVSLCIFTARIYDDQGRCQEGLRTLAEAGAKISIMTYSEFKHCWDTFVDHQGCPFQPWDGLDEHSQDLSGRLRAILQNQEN

[20] = target: Large T antigen (Simian virus 40, UniProt P03070); type: functional, Betapolyomavirus macacae;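 note: Confirmatory-stage PubChem screen for compounds that inhibit SV40 T antigen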
Large T antigen, sequence (P03070 whole entry): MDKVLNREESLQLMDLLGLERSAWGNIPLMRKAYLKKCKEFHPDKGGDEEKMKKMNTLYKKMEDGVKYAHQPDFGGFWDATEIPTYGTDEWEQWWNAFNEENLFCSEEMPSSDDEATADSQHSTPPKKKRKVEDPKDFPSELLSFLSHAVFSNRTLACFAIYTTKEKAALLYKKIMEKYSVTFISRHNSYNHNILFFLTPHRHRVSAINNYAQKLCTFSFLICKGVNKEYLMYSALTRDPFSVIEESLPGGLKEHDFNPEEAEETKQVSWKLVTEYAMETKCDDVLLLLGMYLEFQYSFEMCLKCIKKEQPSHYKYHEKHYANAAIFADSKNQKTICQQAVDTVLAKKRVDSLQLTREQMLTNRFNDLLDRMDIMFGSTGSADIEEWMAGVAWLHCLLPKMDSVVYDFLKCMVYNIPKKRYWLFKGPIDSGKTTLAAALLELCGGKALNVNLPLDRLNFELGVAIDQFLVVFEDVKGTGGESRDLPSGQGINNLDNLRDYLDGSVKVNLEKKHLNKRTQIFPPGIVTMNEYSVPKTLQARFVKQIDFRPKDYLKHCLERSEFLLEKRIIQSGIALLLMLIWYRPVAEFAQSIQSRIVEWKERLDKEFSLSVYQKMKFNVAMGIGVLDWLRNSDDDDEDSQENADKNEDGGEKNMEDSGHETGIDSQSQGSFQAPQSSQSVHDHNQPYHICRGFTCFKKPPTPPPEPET

[21] = target: T6, Ubiquitin-conjugating enzyme E2 N (Homo sapiens, UniProt P61088); type: functional;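 note: Dose-response confirmation in a TR-FRET assay detecting UBC13-driven polyubiquitin chain formation, inhibition measured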
T6 sequence (P61088 whole entry): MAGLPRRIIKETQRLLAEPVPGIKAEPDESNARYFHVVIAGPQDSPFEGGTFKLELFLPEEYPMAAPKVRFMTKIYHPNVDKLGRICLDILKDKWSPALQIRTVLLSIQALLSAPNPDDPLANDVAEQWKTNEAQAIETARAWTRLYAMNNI

[22] = Luminescence Cell-Based Dose Retest to Confirm Inhibitors of Cancer Stem Cells. [Related pubchem assays (depositor defined):AID2717, AID2721]; type: functional; settings: Homo sapiens
[23] = target: T7, Tyrosyl-DNA phosphodiesterase 2 (Homo sapiens, UniProt O95551); assay: potency against TDP2 phosphodiesterase activity – biochemical, epi absorbance, IC50, dose response (AID 743297)
T7 sequence (O95551 whole entry): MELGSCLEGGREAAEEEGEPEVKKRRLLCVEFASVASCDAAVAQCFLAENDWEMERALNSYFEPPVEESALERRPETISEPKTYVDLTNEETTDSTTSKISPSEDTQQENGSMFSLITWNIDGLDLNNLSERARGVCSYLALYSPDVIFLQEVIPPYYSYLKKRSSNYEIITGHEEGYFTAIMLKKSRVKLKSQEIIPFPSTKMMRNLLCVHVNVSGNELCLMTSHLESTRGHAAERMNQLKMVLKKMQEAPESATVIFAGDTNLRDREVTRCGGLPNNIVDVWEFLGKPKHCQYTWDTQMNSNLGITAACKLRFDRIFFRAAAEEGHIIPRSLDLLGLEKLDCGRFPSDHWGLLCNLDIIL

[24] = target: T8, Calpain-2 catalytic subunit (Sus scrofa, UniProt P43367); assay: m-calpain protease blockers, concentration series – biochemical, fluorogenic peptide substrate, dose response (AID 1420); type: functional
T8 sequence (P43367 whole entry): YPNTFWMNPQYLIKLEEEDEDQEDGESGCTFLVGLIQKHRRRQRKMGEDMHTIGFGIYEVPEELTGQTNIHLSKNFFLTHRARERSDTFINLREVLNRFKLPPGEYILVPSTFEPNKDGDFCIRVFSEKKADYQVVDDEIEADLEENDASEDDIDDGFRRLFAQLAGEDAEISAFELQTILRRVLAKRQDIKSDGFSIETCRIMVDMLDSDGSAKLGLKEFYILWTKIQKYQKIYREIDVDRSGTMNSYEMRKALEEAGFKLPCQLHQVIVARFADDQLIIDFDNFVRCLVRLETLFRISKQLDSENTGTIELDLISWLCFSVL

Cytochrome P450 3A4, sequence (P08684 whole entry): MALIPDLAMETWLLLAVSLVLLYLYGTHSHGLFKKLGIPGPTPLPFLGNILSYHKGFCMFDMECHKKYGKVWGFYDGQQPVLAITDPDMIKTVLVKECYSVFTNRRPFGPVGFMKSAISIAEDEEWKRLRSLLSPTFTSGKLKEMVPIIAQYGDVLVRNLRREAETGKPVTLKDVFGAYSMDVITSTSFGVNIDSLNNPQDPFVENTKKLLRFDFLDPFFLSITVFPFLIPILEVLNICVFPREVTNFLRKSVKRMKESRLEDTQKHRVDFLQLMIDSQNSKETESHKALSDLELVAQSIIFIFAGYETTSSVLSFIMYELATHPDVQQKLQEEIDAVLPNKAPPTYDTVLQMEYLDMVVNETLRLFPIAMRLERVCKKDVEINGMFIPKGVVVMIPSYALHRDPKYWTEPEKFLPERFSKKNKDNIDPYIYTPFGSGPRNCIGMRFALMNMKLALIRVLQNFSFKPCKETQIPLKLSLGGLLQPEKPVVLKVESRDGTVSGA

CC1CCC2C(=O)OC(Cc3ccccc3)CN2C1c1ccc(Br)cc1 (stereo not given)
AC50 [1]: 3.98 µM (inconclusive) and 5.01 µM (inconclusive)

Cc1ccnc(NS(=O)(=O)c2ccc(NC(=O)c3cc(-c4ccc(Br)cc4)nc4ccccc34)cc2)n1
EC50 [2]: 68.9 µM (active)
IC50 [3]: 7.03 µM (active)
EC50 [4]: 5.84 µM (inconclusive)
IC50 [5]: 20.9 µM (active)
EC50 [6]: 7.74 µM (active)

O=C(NC(c1ccccc1)c1ccccc1)C1CCCO1 (stereo not given)
EC50 [7]: > 350 µM (not active)
EC50 [8]: > 350 µM (not active)

COc1ccc(OC)c(NC2=NCCCS2)c1
EC50 [7]: > 350 µM (not active)
EC50 [8]: > 350 µM (not active)

CCC(=O)Nc1cccc(NC(C)=O)c1
IC50 [9]: 56.6 µM (inactive)

COc1cccc(C(=O)N2N=C(c3ccccn3)CC2(O)C(F)(F)F)c1 (stereo not given)
CC50 [10]: > 20 µM (active)
IC50 [11]: 8.68 µM (active)
CC50 [12]: 10.1 µM (active)
CC50 [13]: 9.99 µM (active)

O=C(Nc1ccc2nc3ccccc3nc2c1)c1ccc(Br)cc1
IC50 [14]: 26.7 µM (active)

O=C1c2ccccc2C(=O)c2c1cccc2N1CCN(CCO)CC1
IC50 [9]: > 25 µM (inactive)

CCCCNC(=O)COC(=O)c1ccc(Cl)c(S(=O)(=O)N2CCCC2)c1
IC50 [9]: > 100 µM (inactive)

Cc1nc(C(=O)NNC(=O)c2ccc(Cl)cc2)c(C(F)(F)F)o1
CC50 [10]: > 20 µM (active)
IC50 [11]: 44.9 µM (active)
CC50 [12]: > 20 µM (active)
CC50 [13]: 27.8 µM (active)

CN(C)C(S)=Nc1nc2ccccc2s1
EC50 [15]: 2.48 µM (active)
IC50 [16]: 3.79 µM (active)
EC50 [17]: > 60 µM (not active)

CCC[n+]1c(C)sc2c3c(ccc21)CCCC3
AC50 [18]: 9.87 µM (active)

Cc1c(N2C(=O)/C(=C\c3ccccc3O)SC2=S)c(=O)n(-c2ccccc2)n1C
IC50 [19]: 46.2 µM (active)
IC50 [20]: 45.2 µM (active)

CCN(CC)CCCC(C)n1c(-c2ccccc2)nc2c(NCCOC)nc(C)nc21 (stereo not given)
AC50 [1]: 20 µM (inconclusive)

COc1ccc(C(=O)Nc2ccc(-c3nnn(CC(=O)NCc4ccco4)n3)cc2)cc1
IC50 [14]: 43.1 µM (active)

OC(CNCC1CCCO1)Cn1c2ccc(Cl)cc2c2cc(Cl)ccc21 (stereo not given)
IC50 [21]: > 20 µM (inactive)
CC50 [10]: 7.5 µM (active)
AC50 [22]: 3.42 µM (active)
IC50 [11]: 8.48 µM (active)
CC50 [12]: 11.2 µM (active)
CC50 [13]: 9.03 µM (active)

O=C(COC(=O)c1ccccc1Nc1ccccc1)NCc1ccccc1Cl
EC50 [7]: > 350 µM (not active)
EC50 [8]: > 350 µM (not active)

COC(=O)C1=C(C)N(Cc2ccccc2)[C@]23O[C@](C(=O)OC)(C(=O)N2C1c1ccccc1)C1C(=O)N(c2ccccc2)C(=O)C13 (stereo not given in full)
AC50 [1]: 5.01 µM (inconclusive) and 3.98 µM (inconclusive)

O=C(Nc1c(-c2ccc3c(c2)OCO3)[nH][nH]c1=O)c1ccc2c(c1)OCO2
IC50 [23]: > 129 µM (inactive)

Cc1cc(C(=O)N/N=C/c2ccc([N+](=O)[O-])s2)[nH]n1
EC50 [2]: 2.69 µM (active)
EC50 [15]: 0.612 µM (active)
IC50 [11]: 8.88 µM (active)
CC50 [12]: 16.9 µM (active)
CC50 [13]: > 40 µM (active)
IC50 [24]: 6.84 µM (not active)
EC50 [17]: > 60 µM (not active)
EC50 [6]: 1.86 µM (active)

C[C@@H](CO)NC(=O)[C@@H]1C=C2c3cccc4[nH]cc(c34)C[C@H]2N(C)C1 [ERGONOVINE]
AC50 [1]: 20 µM (inconclusive)

OCC(O)Cc1ccc2c(c1)OCO2 (stereo not given) [SAFROLGLYCOL]
AC50 [1]: 39.8 µM (inconclusive)
